Columns and labels:
Type in all cases: cell-based
A549 cells = test: RLuc pDNA delivery, robotic library screening, A549
Summary of the method: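 A549 cells in DMEM+10% FBS were washed twice with PBS and exposed for 4 h to amphiphile/RLuc pDNA complexes prepared from DMSO stocks diluted in DMEM. After medium replacement and 72 hours, cells in HBSS were incubated at 37° C. for 30 minutes, basal then total luminescence measured after 5 μM coelenterazine h; background from untransfected cells was subtracted.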

HepG2 cells [1] = test: RLuc pDNA delivery, robotic library screening, HepG2
Summary of the method: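 After the 4 h exposure the complexes were replaced with fresh DMEM plus 10% FBS. At 72 hours cells were washed with HBSS, kept 30 minutes at 37° C. for basal readings, then given coelenterazine h (5 μM final) for 10 minutes before total luminescence was read. Triplicate means had untransfected background subtracted and were also expressed relative to Lipofectamine® 2000 set at 1.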

Hek293 cells [2] = test: RLuc pDNA delivery, robotic library screening, Hek293
Hek293 cells [3] = test: EGFP mRNA delivery, robotic library screening, Hek293
Procedure: Cells were seeded in a 96 well plate the day before the experiment at a concentration of 50,000 cell/mL (100 μL/w) in DMEM+10% FBS+1% Gln-Abt. For robotic library screening, the delivery of EGFP-mRNA (from TriLink, fully substituted with 5-methoxyuridine, capped and polyadenylated; TriLink, CleanCap® EGFP mRNA (5moU), ref. L-7201) in six different cell lines was performed. Amphiphilic molecule stock solutions were prepared in DMSO as described above and diluted in DMEM to afford a range of concentrations. The solutions of EGFP-mRNA/amphiphilic molecule complexes were freshly prepared prior to the transfection experiments. 35 μL of the corresponding amphiphile were added to 10 μL of a solution of EGFP-mRNA at 10 ng/μL in DMEM. The mixture was shaken for 30 min at room temperature before the addition to the cells. The cell medium was aspirated, and cells were washed with PBS twice. Cells were covered with 39 μL of DMEM and 11 μL of the complex's solution were added to the cells and incubated for 4 h (final concentration of peptide=2.5, 5 and 10 μM; final concentration of EGFP-mRNA=25 ng/well). After the incubation, the medium was replaced by 100 μL of fresh DMEM supplemented with 10% FBS. The total EGFP fluorescence was quantified after 72 h in a well plate reader. Amphiphile transfection efficiency was compared and normalized to Lipofectamine® MessengerMax efficiency (value of 1 in Tables 1-5 and 7; double underlined numbers). All experiments were done in triplicate.
Tables 1-7: RLuc (pDNA) or EGFP (mRNA) expression levels were normalized to Lipofectamine reagents (value=1) and expressed as fold-times signal increase. In the case of siRNA, the siRNA treated cells fluorescence was compared with siMOCK control fluorescence, while Cas9-RNP mediated knockout was measured against the fluorescence of untreated cells. In both siRNA and Cas9-RNP, values are expressed as % fluorescence reduction. Amphiphile concentration was 5 μM in all cases. All experiments were performed in triplicate.
Tables 14-19 show the mean (triplicates) fluorescence intensity measured after the transfection of EGFP mRNA by different amphiphiles at different concentrations in a variety of cell lines. Background fluorescence values, accounted by untreated control cells, were subtracted for processing.

HepG2 cells [4] = test: EGFP mRNA delivery, robotic library screening, HepG2; conditions: HepG2 cells
Summary of the method: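 This robotic library screen tested delivery of CleanCap EGFP mRNA (5moU) into HepG2 cells using amphiphilic molecules. Complexes were freshly prepared at room temperature and added to the cells, and the medium was then replaced with fresh DMEM plus 10% FBS. Total EGFP fluorescence was measured in a plate reader at 72 h in triplicate, with untreated-cell background subtracted.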

## Ac-RHLK*RLK*RRLK*RL-NH2 (Ac-RHLKRLKRRLKRL-NH2; not fully specified (residues 4, 7, 11); printed as Ac-RHLK*RLK*RRLK*RL-NH2; also: linker on K* not given here) [13(Arg-His)]
A549 cells; Dodecanal, 5 μM
  mean luminescent intensity (RLuc pDNA): 6594 RLU
A549 cells; Myristoleyl, 5 μM
  mean luminescent intensity (RLuc pDNA): 8162 RLU
A549 cells; Oleyl, 5 μM
  mean luminescent intensity (RLuc pDNA): 14340 RLU
A549 cells; Palmitoleyl, 5 μM
  mean luminescent intensity (RLuc pDNA): 8561 RLU
A549 cells; Palmitoleyl, 15 μM
  mean luminescent intensity (RLuc pDNA): 3763 RLU
A549 cells; Petroselinyl, 15 μM
  mean luminescent intensity (RLuc pDNA): 9721 RLU
HepG2 cells [1]; Dodecanal, 5 μM
  mean luminescent intensity (RLuc pDNA): 38257 RLU
HepG2 cells [1]; Dodecanal, 10 μM
  mean luminescent intensity (RLuc pDNA): 45978 RLU
HepG2 cells [1]; Dodecanal, 15 μM
  mean luminescent intensity (RLuc pDNA): 15867 RLU
HepG2 cells [1]; Myristoleyl, 5 μM
  mean luminescent intensity (RLuc pDNA): 270920 RLU
HepG2 cells [1]; Myristoleyl, 10 μM
  mean luminescent intensity (RLuc pDNA): 65274 RLU
HepG2 cells [1]; Myristoleyl, 15 μM
  mean luminescent intensity (RLuc pDNA): 23425 RLU
HepG2 cells [1]; Oleyl, 5 μM
  mean luminescent intensity (RLuc pDNA): 123820 RLU
HepG2 cells [1]; Oleyl, 15 μM
  mean luminescent intensity (RLuc pDNA): −1443 RLU
HepG2 cells [1]; Palmitoleyl, 5 μM
  mean luminescent intensity (RLuc pDNA): 211155 RLU
HepG2 cells [1]; Palmitoleyl, 10 μM
  mean luminescent intensity (RLuc pDNA): 107841 RLU
HepG2 cells [1]; Palmitoleyl, 15 μM
  mean luminescent intensity (RLuc pDNA): 24788 RLU
HepG2 cells [1]; Petroselinyl, 10 μM
  mean luminescent intensity (RLuc pDNA): 133806 RLU
HepG2 cells [1]; Petroselinyl, 15 μM
  mean luminescent intensity (RLuc pDNA): 41128 RLU
Hek293 cells [2]; Dodecanal, 5 μM
  mean luminescent intensity (RLuc pDNA): 265059 RLU
Hek293 cells [2]; Dodecanal, 10 μM
  mean luminescent intensity (RLuc pDNA): 309302 RLU
Hek293 cells [2]; Dodecanal, 15 μM
  mean luminescent intensity (RLuc pDNA): 78888 RLU
Hek293 cells [2]; Palmitoleyl, 5 μM
  mean luminescent intensity (RLuc pDNA): 280799 RLU
Hek293 cells [2]; Palmitoleyl, 10 μM
  mean luminescent intensity (RLuc pDNA): 124471 RLU
Hek293 cells [2]; Palmitoleyl, 15 μM
  mean luminescent intensity (RLuc pDNA): 19968 RLU
Hek293 cells [2]; Petroselinyl, 5 μM
  mean luminescent intensity (RLuc pDNA): 258944 RLU
Hek293 cells [2]; Petroselinyl, 10 μM
  mean luminescent intensity (RLuc pDNA): 217264 RLU
Hek293 cells [2]; Petroselinyl, 15 μM
  mean luminescent intensity (RLuc pDNA): 101890 RLU
Hek293 cells [3]; Myristoleyl, 2.5 μM
  mean fluorescence intensity (EGFP mRNA): 2326
Hek293 cells [3]; Oleyl, 2.5 μM
  mean fluorescence intensity (EGFP mRNA): 5005
Hek293 cells [3]; Oleyl, 5 μM
  mean fluorescence intensity (EGFP mRNA): 1571
Hek293 cells [3]; Oleyl, 10 μM
  mean fluorescence intensity (EGFP mRNA): 1231
Hek293 cells [3]; Palmitoleyl, 10 μM
  mean fluorescence intensity (EGFP mRNA): 777
Hek293 cells [3]; Petroselinyl, 2.5 μM
  mean fluorescence intensity (EGFP mRNA): 1436
Hek293 cells [3]; Petroselinyl, 5 μM
  mean fluorescence intensity (EGFP mRNA): 638
Hek293 cells [3]; Petroselinyl, 10 μM
  mean fluorescence intensity (EGFP mRNA): 372
HepG2 cells [4]; Dodecanal, 10 μM
  mean fluorescence intensity after transfection of EGFP mRNA: 782
HepG2 cells [4]; Dodecanal, 15 μM
  mean fluorescence intensity after transfection of EGFP mRNA: 868
HepG2 cells [4]; Oleyl, 5 μM
  mean fluorescence intensity after transfection of EGFP mRNA: 5251
HepG2 cells [4]; Palmitoleyl, 5 μM
  mean fluorescence intensity after transfection of EGFP mRNA: 4616
HepG2 cells [4]; Palmitoleyl, 10 μM
  mean fluorescence intensity after transfection of EGFP mRNA: 2070
HepG2 cells [4]; Palmitoleyl, 15 μM
  mean fluorescence intensity after transfection of EGFP mRNA: 1943
HepG2 cells [4]; Petroselinyl, 5 μM
  mean fluorescence intensity after transfection of EGFP mRNA: 1986
HepG2 cells [4]; Petroselinyl, 10 μM
  mean fluorescence intensity after transfection of EGFP mRNA: 508
